Laboratory results from patent US20090306392A1, “GSM INTERMEDIATES” (priority 2007, published 2009).
pEC50: −log10 of the molar value.

Test system: γ-secretase
Test: Screening for γ-secretase-modulating activity in SKNBE2 cells carrying APP 695-wild type
Format: cell-based
Details: SKNBE2 cells carrying the APP 695-wild type; for pEC50: read-out: EC 50 WTAPP

Compound	pEC50	other results
4-Methyl-2-[4′-trifluoromethyl-5-(4-trifluoromethyl-phenylamino)-biphenyl-3-yl]-pentanoic Acid [Example 10]	6.55	–
CCC(c1ccc(C(F)(F)F)cc1)N1CCCC(c2cc(-c3ccc(C(F)(F)F)cc3)cc([C@@H](CC(C)C)C(=O)O)c2)C1 (single isomer, unassigned) [Example 26, (R*)4-Methyl-2-(4′-trifluoromethyl-5-{1-[1-(4-trifluoromethyl-phenyl)-propyl]-piperidin-3-yl}-biphenyl-3-yl)-pentanoic Acid]	6.44	–
CCC(c1ccc(C(F)(F)F)cc1)N1CCCC(c2cc(-c3ccc(C(F)(F)F)cc3)cc([C@H](CC(C)C)C(=O)O)c2)C1 (single isomer, unassigned) [Example 35, (S*)4-Methyl-2-(4′-trifluoromethyl-5-{1-[1-(4-trifluoromethyl-phenyl)-propyl]-piperidin-3-yl}-biphenyl-3-yl)-pentanoic Acid]	6.23	–
CC(C)CCC(c1ccc(C(F)(F)F)cc1)N1CCCC(c2cc(-c3ccc(C(F)(F)F)cc3)cc([C@@H](CC(C)C)C(=O)O)c2)C1 (single isomer, unassigned) [Example 37, (R*)4-Methyl-2-(5-{1-[4-methyl-1-(4-trifluoromethyl-phenyl)-pentyl]-piperidin-3-yl}-4′-trifluoromethyl-biphenyl-3-yl)-pentanoic Acid]	–	% @ 0.3 uM (WTAPP): 44% @ 0.3 uM
CC(C)C[C@@H](C(=O)O)c1cc(OCc2cc(F)cc(F)c2)cc(-c2ccc(C(F)(F)F)cc2)c1 [Example 1, (R)2-[5-(3,5-Difluoro-benzyloxy)-4′-trifluoromethyl-biphenyl-3-yl]-4-methyl-pentanoic Acid]	6.28	–
CC(C)C[C@H](C(=O)O)c1cc(OCc2cc(F)cc(F)c2)cc(-c2ccc(C(F)(F)F)cc2)c1 [Example 2, (S)-2-[5-(3,5-Difluoro-benzyloxy)-4′-trifluoromethyl-biphenyl-3-yl]-4-methyl-pentanoic Acid]	5.82	–
CC(C)C[C@@H](C(=O)O)c1cc(OCc2ccc(F)cc2C(F)(F)F)cc(-c2ccc(C(F)(F)F)cc2)c1 [Example 3, (R)-2-[5-(4-fluoro-2-trifluoromethyl-benzyloxy)-4′-trifluoromethyl-biphenyl-3-yl]-4-methyl-pentanoic Acid]	6.24	–
CC(C)CC(C(=O)O)c1cc(OCc2cc(F)cc(F)c2)cc(-c2ccc(Cl)c(C(F)(F)F)c2)c1 (centres unmarked) [Example 4, 2-[4′-Chloro-5-(3,5-difluoro-2-benzyloxy)-3′-trifluoromethyl-biphenyl-3-yl]-4-methyl-pentanoic Acid]	6.51	–
CC(C)CC(C(=O)O)c1cc(-c2ccc(C(F)(F)F)cc2)cc(-c2cc(F)cc(F)c2)c1 (centres unmarked) [Example 5, 2-(3,5-Difluoro-4″-trifluoromethyl-[1,1′;3′,1″]terphenyl-5′-yl)-4-methyl-pentanoic Acid]	6.72	–
CC(C)CC(C(=O)O)c1cc(-c2ccc(C(F)(F)F)cc2)cc(-c2ccc(OC(F)(F)F)c(F)c2)c1 (centres unmarked) [Example 6, 2-(3-Fluoro-4-trifluoromethoxy-4″-trifluoromethyl-[1,1′;3′,1″]terphenyl-5′-yl)-4-methyl-pentanoic Acid]	6.85	–
CC(C)CC(C(=O)O)c1cc(Nc2cc(F)cc(F)c2)cc(-c2ccc(C(F)(F)F)cc2)c1 (centres unmarked) [Example 9, 2-[5-(3,5-Difluoro-phenylamino)-4′-trifluoromethyl-biphenyl-3-yl]-4-methyl-pentanoic Acid]	–	inhibition @ 3 uM (WTAPP): 73% inhibition @ 3 uM
CC(C)CC(C(=O)O)c1cc(Nc2ccc(C(C)C)cc2)cc(-c2ccc(C(F)(F)F)cc2)c1 (centres unmarked) [Example 11, 2-[5-(4-Isopropyl-phenylamino)-4′-trifluoromethyl-biphenyl-3-yl]-4-methyl-pentanoic Acid]	6.54	–
CC(C)C[C@@H](C(=O)O)c1cc(Nc2cc(C(F)(F)F)ccc2C(F)(F)F)cc(-c2ccc(C(F)(F)F)cc2)c1 [Example 12, (R)2-[5-(2,5-Bis-trifluoromethyl-phenylamino)-4′-trifluoromethyl-biphenyl-3-yl]-4-methyl-pentanoic Acid]	6.82	–
CC(C)CC(C(=O)O)c1cc(-c2ccc(C(F)(F)F)cc2)cc(N(C)c2ccc(C(F)(F)F)cc2)c1 (centres unmarked) [Example 13, 4-Methyl-2-{5-[methyl-(4-trifluoromethyl-phenyl)-amino]-4′-trifluoromethyl-biphenyl-3-yl}-pentanoic Acid]	–	% @ 0.3 uM (WTAPP): 21% @ 0.3 uM
CC(C)CCN(c1ccc(C(F)(F)F)cc1)c1cc(-c2ccc(C(F)(F)F)cc2)cc(C(CC(C)C)C(=O)O)c1 (centres unmarked) [Example 14, 4-Methyl-2-{5-[(3-methyl-butyl)-(4-trifluoromethyl-phenyl)-amino]-4′-trifluoromethyl-biphenyl-3-yl}-pentanoic Acid]	6.77	–
CC(C)CCN(c1ccc(Cl)cc1)c1cc(-c2ccc(C(F)(F)F)cc2)cc(C(CC(C)C)C(=O)O)c1 (centres unmarked) [Example 15, 2-{5-[(4-Chloro-phenyl)-(3-methyl-butyl)-amino]-4′-trifluoromethyl-biphenyl-3-yl}-4-methyl-pentanoic Acid]	6.82	–

Compound	pEC50	other results
CC(C)CC(C(=O)O)c1cc(Oc2cccc(C(C)C)c2)cc(-c2ccc(C(F)(F)F)cc2)c1 (centres unmarked) [Example 16, 2-[5-(3-Isopropyl-phenoxy)-4′-trifluoromethyl-biphenyl-3-yl]-4-methyl-pentanoic Acid]	–	inhibition @ 3 uM (WTAPP): 64% inhibition @ 3 uM
CC(C)CC(C(=O)O)c1cc(Oc2cc(F)cc(C(F)(F)F)c2)cc(-c2ccc(Cl)c(C(F)(F)F)c2)c1 (centres unmarked) [Example 17, 4-Methyl-2-[4′-chloro-3′-trifluoromethyl-5-(3-fluoro-5-trifluoromethylphenoxy)-biphenyl-3-yl]-pentanoic Acid]	6.85	–
CC(C)CC(C(=O)O)c1cc(Oc2cc(F)cc(C(F)(F)F)c2)cc(-c2ccc(C(F)(F)F)cc2)c1 (centres unmarked) [Example 18, 2-[5-(3-Fluoro-5-trifluoromethyl-phenoxy)-4′-trifluoromethyl-biphenyl-3-yl]-4-methyl-pentanoic Acid]	6.48	–
CC(C)CC(C(=O)O)c1cc(-c2ccc(C(F)(F)F)cc2)cc(-c2cc(F)nc(F)c2)c1 (centres unmarked) [Example 19, 2-[5-(2,6-Difluoro-pyridin-4-yl)-4′-trifluoromethyl-biphenyl-3-yl]-4-methyl-pentanoic Acid]	6.66	–
CC(C)CC(C(=O)O)c1cc(-c2ccc(C(F)(F)F)cc2)cc(-c2ccc(C(F)(F)F)cn2)c1 (centres unmarked) [Example 20, 4-Methyl-2-[4′-trifluoromethyl-5-(5-trifluoromethyl-pyridin-2-yl)-biphenyl-3-yl]-pentanoic Acid]	6.49	–
CC(C)CCC(Oc1cc(-c2ccc(C(F)(F)F)cc2)cc(C(CC(C)C)C(=O)O)c1)c1cc(F)cc(F)c1 (centres unmarked) [Example 21, 2-{5-[1-(3,5-Difluoro-phenyl)-4-methyl-pentyloxy]-4′-trifluoromethyl-biphenyl-3-yl}-4-methyl-pentanoic Acid]	6.64	–
CC(C)CC(C(=O)O)c1cc(C(=O)c2cc(Cl)cc(Cl)c2)cc(-c2ccc(C(F)(F)F)cc2)c1 (centres unmarked) [Example 22, 2-[5-(3,5-Dichloro-benzoyl)-4′-trifluoromethyl-biphenyl-3-yl]-4-methyl-pentanoic Acid]	6.15	–
CC(C)CC(C(=O)O)c1cc(/C=C/c2ccc(-c3ccccc3)cc2)cc(-c2ccc(C(F)(F)F)cc2)c1 (centres unmarked) [Example 23, 2-[5-(2-Biphenyl-4-yl-vinyl)-4′-trifluoromethyl-biphenyl-3-yl]-4-methyl-pentanoic Acid]	6.85	–
CC(C)CC(C(=O)O)c1cc(CCc2ccc(-c3ccccc3)cc2)cc(-c2ccc(C(F)(F)F)cc2)c1 (centres unmarked) [Example 24, 2-[5-(2-Biphenyl-4-yl-ethyl)-4′-trifluoromethyl-biphenyl-3-yl]-4-methyl-pentanoic Acid]	6.68	–
CC(C)CC(C(=O)O)c1cc(NC(=O)c2cccc(C(F)(F)F)c2)cc(-c2ccc(C(F)(F)F)cc2)c1 (centres unmarked) [Example 25, 4-Methyl-2-[4′-trifluoromethyl-5-(3-trifluoromethyl-benzoylamino)-biphenyl-3-yl]-pentanoic Acid]	5.75	–
CC(C)CC(C(=O)O)c1cc(-c2ccc(C(F)(F)F)cc2)cc(C2CCCC(C(F)(F)F)N2)c1 (centres unmarked) [Example 27, 4-Methyl-2-[4′-trifluoromethyl-5-(6-trifluoromethyl-piperidin-2-yl)-biphenyl-3-yl]-pentanoic Acid]	6.15	–
CC(C)CCN1C(c2cc(-c3ccc(C(F)(F)F)cc3)cc(C(CC(C)C)C(=O)O)c2)CCCC1C(F)(F)F (centres unmarked) [Example 28, 4-Methyl-2-{5-[1-(3-methyl-butyl)-6-trifluoromethyl-piperidin-2-yl]-4′-trifluoromethyl-biphenyl-3-yl}-pentanoic Acid]	6.96	–
CC(C)CCN(Cc1cc(-c2ccc(C(F)(F)F)cc2)cc(C(CC(C)C)C(=O)O)c1)Cc1cc(F)c(F)c(F)c1 (centres unmarked) [Example 29, 4-Methyl-2-(5-{[(3-methyl-butyl)-(3,4,5-trifluoro-benzyl)-amino]-methyl}-4′-trifluoromethyl-biphenyl-3-yl)-pentanoic Acid]	6.57	–
CC(C)CCN(Cc1cc(-c2ccc(C(F)(F)F)cc2)cc(C(CC(C)C)C(=O)O)c1)Cc1cc(C(F)(F)F)cc(C(F)(F)F)c1 (centres unmarked) [Example 30, 2-(5-{[(3,5-Bis-trifluoromethyl-benzyl)-(3-methyl-butyl)-amino]-methyl}-4′-trifluoromethyl-biphenyl-3-yl)-4-methyl-pentanoic Acid]	6.60	–
CC(C)CC(C(=O)O)c1cc(-c2ccc(C(F)(F)F)cc2)cc(C2CCN(Cc3ccc(C(F)(F)F)cc3)CC2)c1 (centres unmarked) [Example 31, 4-Methyl-2-{4′-trifluoromethyl-5-[1-(4-trifluoromethyl-benzyl)-piperidin-4-yl]-biphenyl-3-yl}-pentanoic Acid]	–	% @ 0.3 uM (WTAPP): 8% @ 0.3 uM
CC(C)CCC(c1ccc(C(F)(F)F)cc1)N1CCC(c2cc(-c3ccc(C(F)(F)F)cc3)cc(C(CC(C)C)C(=O)O)c2)CC1 (centres unmarked) [Example 32, 4-Methyl-2-(5-{1-[4-methyl-1-(4-trifluoromethyl-phenyl)-pentyl]-piperidin-4-yl}-4′-trifluoromethyl-biphenyl-3-yl)-pentanoic Acid]	5.68	–
